Measurements reported in ChEMBL document CHEMBL1136466, “KMI-008, a novel beta-secretase inhibitor containing a hydroxymethylcarbonyl isostere as a transition-state mimic: design and synthesis of substrate-based octapeptides” (Bioorg Med Chem Lett, 2003).
Starred links: 1 amine or outer side, 2 acyl side, 3 side chain; linkers in the order of their positions; H or OH if unused. Non-standard residues stand in square brackets, D forms with d. Residues, ends and D or L forms follow the SMILES beside them. β3hPhe(2R-OH) = O=C([C@H](O)[C@H](Cc1ccccc1)N[*:1])[*:2]; X1 = CC(C)C[C@H](N[*:1])[C@@H](O)C(=O)[*:2]

Legend:
Beta-secretase 1 [1] = molecular target: T1, Beta-secretase 1 (Homo sapiens, UniProt P56817); assay: Inhibition of beta-secretase 1 (BACE) was determined at the concentration of 2 uM
Beta-secretase 1 [2] = molecular target: T1, Beta-secretase 1; assay: Inhibitory activity against Beta-secretase 1 was determined

T1 sequence (P56817 whole entry): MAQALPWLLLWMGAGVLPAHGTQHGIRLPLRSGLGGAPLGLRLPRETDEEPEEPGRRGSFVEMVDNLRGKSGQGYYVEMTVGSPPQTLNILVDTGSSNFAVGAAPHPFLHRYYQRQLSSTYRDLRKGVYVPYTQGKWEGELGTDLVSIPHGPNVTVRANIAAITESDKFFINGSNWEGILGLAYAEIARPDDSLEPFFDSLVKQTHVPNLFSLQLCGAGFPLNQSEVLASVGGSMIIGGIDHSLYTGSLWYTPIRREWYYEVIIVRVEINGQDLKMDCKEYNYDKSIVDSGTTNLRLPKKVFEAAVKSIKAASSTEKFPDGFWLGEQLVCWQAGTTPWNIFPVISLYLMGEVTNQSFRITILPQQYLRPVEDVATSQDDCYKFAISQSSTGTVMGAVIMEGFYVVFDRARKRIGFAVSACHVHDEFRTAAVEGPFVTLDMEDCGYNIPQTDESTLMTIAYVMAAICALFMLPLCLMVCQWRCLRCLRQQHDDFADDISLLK

| Compound | inhibition (Beta-secretase 1 [1]) | IC50 (Beta-secretase 1 [2]) |
| --- | --- | --- |
| CC(C)C[C@H](NC(=O)[C@@H](NC(=O)[C@@H](N)CCC(=O)O)C(C)C)C(=O)N[C@@H](Cc1ccccc1)[C@@H](O)C(=O)N1CSC(C)(C)C1C(=O)N[C@@H](C)C(=O)N[C@@H](CCC(=O)O)C(=O)N[C@@H](Cc1ccccc1)C(=O)O (some centres not stated) | 34% |  |
| CC(C)C[C@H](NC(=O)[C@@H](NC(=O)[C@@H](N)CCC(=O)O)C(C)C)C(=O)N[C@@H](Cc1ccccc1)[C@@H](O)C(=O)N[C@@H](C)C(=O)N[C@@H](C)C(=O)N[C@@H](CCC(=O)O)C(=O)N[C@@H](Cc1ccccc1)C(=O)O | 53% |  |
| CC(C)C[C@H](NC(=O)[C@@H](NC(=O)[C@@H](N)CCC(=O)O)C(C)C)C(=O)N[C@@H](Cc1ccccc1)[C@@H](O)C(=O)N[C@@H](CC(N)=O)C(=O)N[C@@H](C)C(=O)N[C@@H](CCC(=O)O)C(=O)N[C@@H](Cc1ccccc1)C(=O)O | 54% |  |
| CC(C)C[C@H](NC(=O)[C@@H](NC(=O)[C@@H](N)CCC(=O)O)C(C)C)C(=O)N[C@@H](Cc1ccccc1)[C@@H](O)C(=O)N[C@@H](CCC(N)=O)C(=O)N[C@@H](C)C(=O)N[C@@H](CCC(=O)O)C(=O)N[C@@H](Cc1ccccc1)C(=O)O | 41% |  |
| CC(C)C[C@H](NC(=O)[C@@H](NC(=O)[C@@H](N)CCC(=O)O)C(C)C)C(=O)N[C@H](Cc1ccccc1)[C@@H](O)C(=O)N1CSC(C)(C)C1C(=O)N[C@@H](C)C(=O)N[C@@H](CCC(=O)O)C(=O)N[C@@H](Cc1ccccc1)C(=O)O (some centres not stated) | 34% |  |
| CC(C)C[C@H](NC(=O)[C@@H](NC(=O)[C@@H](N)CCC(=O)O)C(C)C)C(=O)N[C@H](Cc1ccccc1)[C@@H](O)C(=O)N[C@@H](C)C(=O)N[C@@H](C)C(=O)N[C@@H](CCC(=O)O)C(=O)N[C@@H](Cc1ccccc1)C(=O)O | < 20% |  |
| CC(C)C[C@H](NC(=O)[C@@H](NC(=O)[C@@H](N)CCC(=O)O)C(C)C)C(=O)N[C@H](Cc1ccccc1)[C@@H](O)C(=O)N[C@@H](CC(N)=O)C(=O)N[C@@H](C)C(=O)N[C@@H](CCC(=O)O)C(=O)N[C@@H](Cc1ccccc1)C(=O)O | 22% |  |
| CC(C)C[C@H](NC(=O)[C@@H](NC(=O)[C@@H](N)CCC(=O)O)C(C)C)C(=O)N[C@H](Cc1ccccc1)[C@@H](O)C(=O)N[C@@H](CCC(N)=O)C(=O)N[C@@H](C)C(=O)N[C@@H](CCC(=O)O)C(=O)N[C@@H](Cc1ccccc1)C(=O)O | 33% |  |
| CC(C)C[C@H](NC(=O)[C@H](Cc1ccccc1)NC(=O)[C@@H](N)CCC(=O)O)C(=O)N[C@@H](Cc1ccccc1)[C@@H](O)C(=O)N[C@@H](CC(=O)O)C(=O)N[C@@H](C)C(=O)N[C@@H](CCC(=O)O)C(=O)N[C@@H](Cc1ccccc1)C(=O)O (H-EFL[β3hPhe(2R-OH)]DAEF-OH) | < 20% |  |
| CC(C)C[C@H](NC(=O)[C@H](CC(C)C)NC(=O)[C@@H](N)CCC(=O)O)C(=O)N[C@@H](Cc1ccccc1)[C@@H](O)C(=O)N[C@@H](CC(=O)O)C(=O)N[C@@H](C)C(=O)N[C@@H](CCC(=O)O)C(=O)N[C@@H](Cc1ccccc1)C(=O)O (H-ELL[β3hPhe(2R-OH)]DAEF-OH) | < 20% |  |
| CSCC[C@H](NC(=O)[C@@H](N)CCC(=O)O)C(=O)N[C@@H](CC(C)C)C(=O)N[C@@H](Cc1ccccc1)[C@@H](O)C(=O)N[C@@H](CC(=O)O)C(=O)N[C@@H](C)C(=O)N[C@@H](CCC(=O)O)C(=O)N[C@@H](Cc1ccccc1)C(=O)O (H-EML[β3hPhe(2R-OH)]DAEF-OH) | < 20% |  |
| CC(C)C[C@H](NC(=O)[C@@H](NC(=O)[C@@H](N)CCC(=O)O)C(C)C)C(=O)N[C@@H](Cc1ccccc1)[C@@H](O)C(=O)N[C@@H](C)C(=O)N[C@@H](Cc1ccccc1)C(=O)N[C@@H](CCC(=O)O)C(=O)N[C@@H](Cc1ccccc1)C(=O)O (H-EVL[β3hPhe(2R-OH)]AFEF-OH) | 60% |  |
| CC(C)C[C@H](NC(=O)[C@H](C)NC(=O)[C@H](O)[C@H](Cc1ccccc1)NC(=O)[C@H](CC(C)C)NC(=O)[C@@H](NC(=O)[C@@H](N)CCC(=O)O)C(C)C)C(=O)N[C@@H](CCC(=O)O)C(=O)N[C@@H](Cc1ccccc1)C(=O)O (H-EVL[β3hPhe(2R-OH)]ALEF-OH) | 41% |  |
| CC(C)C[C@H](NC(=O)[C@@H](NC(=O)[C@@H](N)CCC(=O)O)C(C)C)C(=O)N[C@@H](Cc1ccccc1)[C@@H](O)C(=O)N[C@@H](C)C(=O)N[C@H](C(=O)N[C@@H](CCC(=O)O)C(=O)N[C@@H](Cc1ccccc1)C(=O)O)C(C)C (H-EVL[β3hPhe(2R-OH)]AVEF-OH) | 30% |  |
| CC(C)C[C@H](NC(=O)[C@@H](NC(=O)[C@@H](N)CCC(=O)O)C(C)C)C(=O)N[C@@H](Cc1ccccc1)[C@@H](O)C(=O)N[C@@H](CC(=O)O)C(=O)N[C@@H](C)C(=O)N[C@@H](Cc1ccccc1)C(=O)N[C@@H](Cc1ccccc1)C(=O)O (H-EVL[β3hPhe(2R-OH)]DAFF-OH) | 67% |  |
| CC(C)C[C@H](NC(=O)[C@H](C)NC(=O)[C@H](CC(=O)O)NC(=O)[C@H](O)[C@H](Cc1ccccc1)NC(=O)[C@H](CC(C)C)NC(=O)[C@@H](NC(=O)[C@@H](N)CCC(=O)O)C(C)C)C(=O)N[C@@H](Cc1ccccc1)C(=O)O (H-EVL[β3hPhe(2R-OH)]DALF-OH) | 57% |  |
| CC(C)C[C@H](NC(=O)[C@@H](NC(=O)[C@@H](N)CCC(=O)O)C(C)C)C(=O)N[C@@H](Cc1ccccc1)[C@@H](O)C(=O)N[C@@H](CC(=O)O)C(=O)N[C@@H](C)C(=O)N[C@@H](CCC(N)=O)C(=O)N[C@@H](Cc1ccccc1)C(=O)O (H-EVL[β3hPhe(2R-OH)]DAQF-OH) | 56% |  |
| CC(C)C[C@H](NC(=O)[C@@H](NC(=O)[C@@H](N)CCC(=O)O)C(C)C)C(=O)N[C@@H](Cc1ccccc1)[C@@H](O)C(=O)N[C@@H](CC(=O)O)C(=O)N[C@@H](C)C(=O)N[C@H](C(=O)N[C@@H](Cc1ccccc1)C(=O)O)C(C)C (H-EVL[β3hPhe(2R-OH)]DAVF-OH) | 57% |  |
| CC(C)C[C@H](NC(=O)[C@H](CC(N)=O)NC(=O)[C@@H](NC(=O)[C@@H](N)CCC(=O)O)C(C)C)[C@@H](O)C(=O)N[C@@H](CC(=O)O)C(=O)N[C@@H](C)C(=O)N[C@@H](CCC(=O)O)C(=O)N[C@@H](Cc1ccccc1)C(=O)O (H-EVN[X1]DAEF-OH) | < 20% |  |

More lines, now with the values ahead:

| inhibition (Beta-secretase 1 [1]) | IC50 (Beta-secretase 1 [2]) | Compound |
| --- | --- | --- |
| 64% |  | CC(C)C[C@H](NC(=O)[C@@H](NC(=O)[C@@H](N)CCC(=O)O)C(C)C)C(=O)N[C@@H](Cc1ccccc1)[C@@H](O)C(=O)N[C@@H](CCC(=O)O)C(=O)N[C@@H](C)C(=O)N[C@@H](CCC(=O)O)C(=O)N[C@@H](Cc1ccccc1)C(=O)O |
| 66% |  | CC(C)C[C@H](NC(=O)[C@@H](NC(=O)[C@@H](N)CCC(=O)O)C(C)C)C(=O)N[C@H](Cc1ccccc1)[C@@H](O)C(=O)N[C@@H](CC(=O)O)C(=O)N[C@@H](C)C(=O)N[C@@H](CCC(=O)O)C(=O)N[C@@H](Cc1ccccc1)C(=O)O |
| 47% |  | CC(C)C[C@H](NC(=O)[C@@H](NC(=O)[C@@H](N)CCC(=O)O)C(C)C)C(=O)N[C@H](Cc1ccccc1)[C@@H](O)C(=O)N[C@@H](CCC(=O)O)C(=O)N[C@@H](C)C(=O)N[C@@H](CCC(=O)O)C(=O)N[C@@H](Cc1ccccc1)C(=O)O |
| 26% |  | CC[C@@H](C)[C@H](NC(=O)[C@@H](N)CCC(=O)O)C(=O)N[C@@H](CC(C)C)C(=O)N[C@@H](Cc1ccccc1)[C@@H](O)C(=O)N[C@@H](CC(=O)O)C(=O)N[C@@H](C)C(=O)N[C@@H](CCC(=O)O)C(=O)N[C@@H](Cc1ccccc1)C(=O)O |
| 25% |  | CC(C)[C@H](NC(=O)[C@@H](N)CCC(=O)O)C(=O)N[C@@H](CC(=O)O)C(=O)N[C@@H](Cc1ccccc1)[C@@H](O)C(=O)N[C@@H](CC(=O)O)C(=O)N[C@@H](C)C(=O)N[C@@H](CCC(=O)O)C(=O)N[C@@H](Cc1ccccc1)C(=O)O (H-EVD[β3hPhe(2R-OH)]DAEF-OH) |
| 30% |  | CC(C)[C@H](NC(=O)[C@@H](N)CCC(=O)O)C(=O)N[C@@H](CCC(=O)O)C(=O)N[C@@H](Cc1ccccc1)[C@@H](O)C(=O)N[C@@H](CC(=O)O)C(=O)N[C@@H](C)C(=O)N[C@@H](CCC(=O)O)C(=O)N[C@@H](Cc1ccccc1)C(=O)O (H-EVE[β3hPhe(2R-OH)]DAEF-OH) |
| < 20% |  | CC(C)[C@H](NC(=O)[C@@H](N)CCC(=O)O)C(=O)N[C@@H](CCCCN)C(=O)N[C@@H](Cc1ccccc1)[C@@H](O)C(=O)N[C@@H](CC(=O)O)C(=O)N[C@@H](C)C(=O)N[C@@H](CCC(=O)O)C(=O)N[C@@H](Cc1ccccc1)C(=O)O (H-EVK[β3hPhe(2R-OH)]DAEF-OH) |
| 78% |  | CC(C)C[C@H](NC(=O)[C@@H](NC(=O)[C@@H](N)CCC(=O)O)C(C)C)C(=O)N[C@@H](Cc1ccccc1)[C@@H](O)C(=O)N[C@@H](C)C(=O)N[C@@H](CCC(=O)O)C(=O)N[C@@H](CCC(=O)O)C(=O)N[C@@H](Cc1ccccc1)C(=O)O (H-EVL[β3hPhe(2R-OH)]AEEF-OH) |
| 42% |  | CSCC[C@H](NC(=O)[C@@H](NC(=O)[C@@H](N)CCC(=O)O)C(C)C)C(=O)N[C@@H](Cc1ccccc1)[C@@H](O)C(=O)N[C@@H](CC(=O)O)C(=O)N[C@@H](C)C(=O)N[C@@H](CCC(=O)O)C(=O)N[C@@H](Cc1ccccc1)C(=O)O (H-EVM[β3hPhe(2R-OH)]DAEF-OH) |
| 24% |  | CC(C)[C@H](NC(=O)[C@@H](N)CCC(=O)O)C(=O)N[C@@H](CC(N)=O)C(=O)N[C@@H](Cc1ccccc1)[C@@H](O)C(=O)N[C@@H](CC(=O)O)C(=O)N[C@@H](C)C(=O)N[C@@H](CCC(=O)O)C(=O)N[C@@H](Cc1ccccc1)C(=O)O (H-EVN[β3hPhe(2R-OH)]DAEF-OH) |
| 36% |  | CC(C)[C@H](NC(=O)[C@@H](N)CCC(=O)O)C(=O)N[C@@H](CCC(N)=O)C(=O)N[C@@H](Cc1ccccc1)[C@@H](O)C(=O)N[C@@H](CC(=O)O)C(=O)N[C@@H](C)C(=O)N[C@@H](CCC(=O)O)C(=O)N[C@@H](Cc1ccccc1)C(=O)O (H-EVQ[β3hPhe(2R-OH)]DAEF-OH) |
| > 90% | 413 nM | CC(C)C[C@H](NC(=O)[C@@H](NC(=O)[C@@H](N)CCC(=O)O)C(C)C)C(=O)N[C@@H](Cc1ccccc1)[C@@H](O)C(=O)N[C@@H](CC(=O)O)C(=O)N[C@@H](C)C(=O)N[C@@H](CCC(=O)O)C(=O)N[C@@H](Cc1ccccc1)C(=O)O [HGLUVALLEUPNSASPALAGLUPHEOH] |
